According to the NIST ThermoML archive (doi:10.1021/je900719z):
± gives the expanded uncertainty stated by the source.

Details: Liquid, Ebulliometric method (Recirculating still)

CCO [ethanol]
Details	vapor or sublimation pressure [kPa]
325.48 K	33 ± 0.11
326.03 K	33.9 ± 0.11
326.48 K	34.6 ± 0.11
326.93 K	35.3 ± 0.11
327.33 K	36 ± 0.11
327.8 K	36.8 ± 0.11
328.26 K	37.6 ± 0.11
328.73 K	38.4 ± 0.11
329.18 K	39.2 ± 0.11
329.62 K	40 ± 0.11
330.11 K	40.9 ± 0.11
330.62 K	41.9 ± 0.11
331.16 K	42.9 ± 0.11
331.66 K	43.9 ± 0.11
332.17 K	44.9 ± 0.11
332.68 K	45.9 ± 0.11
333.15 K	46.9 ± 0.11
333.86 K	48.4 ± 0.11
334.55 K	49.9 ± 0.11
335.17 K	51.3 ± 0.11
335.84 K	52.8 ± 0.11
336.28 K	53.85 ± 0.11
336.81 K	55.13 ± 0.11
337.31 K	56.32 ± 0.11
337.86 K	57.69 ± 0.11
338.32 K	58.87 ± 0.11
338.97 K	60.49 ± 0.11
339.47 K	61.82 ± 0.11
339.99 K	63.19 ± 0.11
340.47 K	64.47 ± 0.12
340.82 K	65.48 ± 0.12
341.18 K	66.45 ± 0.12
341.68 K	67.91 ± 0.12
342.01 K	68.92 ± 0.12
342.53 K	70.35 ± 0.12
343.05 K	71.88 ± 0.12
343.54 K	73.35 ± 0.12
343.97 K	74.68 ± 0.12
344.41 K	76.08 ± 0.12
344.93 K	77.68 ± 0.12
345.3 K	78.95 ± 0.12
345.77 K	80.44 ± 0.12
346.17 K	81.82 ± 0.12
346.75 K	83.74 ± 0.12
347.17 K	85.17 ± 0.12
347.51 K	86.38 ± 0.12
347.91 K	87.78 ± 0.12
348.29 K	89.17 ± 0.12
348.62 K	90.34 ± 0.12
349.03 K	91.82 ± 0.13
349.36 K	93.08 ± 0.13
349.67 K	94.24 ± 0.13
350.05 K	95.68 ± 0.13
350.44 K	97.16 ± 0.13
350.82 K	98.63 ± 0.13
351.17 K	100.02 ± 0.13
351.51 K	101.38 ± 0.13
351.76 K	102.37 ± 0.13
352.07 K	103.64 ± 0.13
352.45 K	105.17 ± 0.13
352.79 K	106.59 ± 0.13
353.15 K	108.08 ± 0.13
353.5 K	109.58 ± 0.13
353.79 K	110.8 ± 0.13
354.14 K	112.36 ± 0.13
354.46 K	113.75 ± 0.13
354.82 K	115.35 ± 0.14
355.15 K	116.81 ± 0.14
355.51 K	118.44 ± 0.14
355.85 K	120.01 ± 0.14
356.22 K	121.68 ± 0.14
356.54 K	123.23 ± 0.14
356.81 K	124.46 ± 0.14
357.16 K	126.16 ± 0.14
357.48 K	127.68 ± 0.14
357.89 K	129.67 ± 0.14

O [water]
Details	vapor or sublimation pressure [kPa]
333.02 K	19.55 ± 0.1
333.56 K	20.05 ± 0.1
334.08 K	20.55 ± 0.1
334.59 K	21.05 ± 0.1
335.15 K	21.6 ± 0.1
335.64 K	22.1 ± 0.1
336.11 K	22.6 ± 0.1
336.66 K	23.15 ± 0.1
337.12 K	23.65 ± 0.1
337.65 K	24.22 ± 0.1
338.13 K	24.75 ± 0.1
338.6 K	25.3 ± 0.1
339.12 K	25.9 ± 0.1
339.62 K	26.45 ± 0.1
340.15 K	27.1 ± 0.1
340.63 K	27.7 ± 0.1
341.25 K	28.45 ± 0.1
341.67 K	29 ± 0.1
342.13 K	29.6 ± 0.1
342.71 K	30.33 ± 0.1
343.17 K	30.95 ± 0.1
343.73 K	31.72 ± 0.1
344.21 K	32.4 ± 0.1
344.73 K	33.15 ± 0.1
345.22 K	33.85 ± 0.1
345.66 K	34.5 ± 0.1
346.11 K	35.15 ± 0.1
346.61 K	35.9 ± 0.11
347.15 K	36.75 ± 0.11
347.62 K	37.5 ± 0.11
348.15 K	38.32 ± 0.11
348.22 K	38.47 ± 0.11
348.65 K	39.18 ± 0.11
349.17 K	40.04 ± 0.11
349.68 K	40.88 ± 0.11
350.22 K	41.85 ± 0.11
350.66 K	42.59 ± 0.11
351.18 K	43.5 ± 0.11
351.67 K	44.39 ± 0.11
352.13 K	45.28 ± 0.11
352.64 K	46.19 ± 0.11
353.13 K	47.14 ± 0.11
353.65 K	48.15 ± 0.11
354.12 K	49.06 ± 0.11
354.63 K	50.07 ± 0.11
355.13 K	51.1 ± 0.11
355.71 K	52.36 ± 0.11
356.14 K	53.24 ± 0.11
356.65 K	54.34 ± 0.11
357.13 K	55.42 ± 0.11
357.69 K	56.64 ± 0.11
358.16 K	57.69 ± 0.11
358.65 K	58.78 ± 0.11
359.19 K	60.08 ± 0.11
359.62 K	61.09 ± 0.11
360.26 K	62.64 ± 0.11
360.74 K	63.82 ± 0.11
361.2 K	64.95 ± 0.11
361.61 K	65.98 ± 0.11
362.13 K	67.33 ± 0.11
362.71 K	68.85 ± 0.11
363.17 K	70.05 ± 0.11
363.72 K	71.54 ± 0.11
364.28 K	73.07 ± 0.12
364.75 K	74.38 ± 0.12
365.34 K	76.08 ± 0.12
365.84 K	77.53 ± 0.12
366.34 K	78.95 ± 0.12
366.86 K	80.58 ± 0.12
367.35 K	82.03 ± 0.12
367.83 K	83.48 ± 0.12
368.33 K	85.04 ± 0.12
368.8 K	86.54 ± 0.12
369.27 K	88.07 ± 0.12
369.69 K	89.44 ± 0.12
370.03 K	90.54 ± 0.12
370.62 K	92.52 ± 0.12
371.09 K	94.12 ± 0.12
371.52 K	95.59 ± 0.12
371.94 K	97.02 ± 0.12
372.36 K	98.48 ± 0.12
372.78 K	100.03 ± 0.13
373.16 K	101.39 ± 0.13
373.59 K	103 ± 0.13
374 K	104.48 ± 0.13
374.39 K	105.94 ± 0.13
374.82 K	107.57 ± 0.13
375.18 K	108.97 ± 0.13
375.6 K	110.58 ± 0.13
376.1 K	112.55 ± 0.13
376.46 K	113.99 ± 0.13
376.86 K	115.58 ± 0.13
377.21 K	117.02 ± 0.13
377.57 K	118.54 ± 0.13
377.92 K	119.94 ± 0.13
378.29 K	121.58 ± 0.13
378.65 K	123.07 ± 0.13
378.99 K	124.48 ± 0.13
379.33 K	126.01 ± 0.13
379.71 K	127.64 ± 0.13
380 K	128.92 ± 0.14
380.36 K	130.53 ± 0.14
380.74 K	132.25 ± 0.14
